Tests used:
UGT1A6 [1] = biological target: T1, UGT1A6 (Homo sapiens, UniProt P19224); experiment: Serotonin glucuronidation, UGT1A6-infected Sf9 treated cell lysates
T1 sequence (P19224 27-532): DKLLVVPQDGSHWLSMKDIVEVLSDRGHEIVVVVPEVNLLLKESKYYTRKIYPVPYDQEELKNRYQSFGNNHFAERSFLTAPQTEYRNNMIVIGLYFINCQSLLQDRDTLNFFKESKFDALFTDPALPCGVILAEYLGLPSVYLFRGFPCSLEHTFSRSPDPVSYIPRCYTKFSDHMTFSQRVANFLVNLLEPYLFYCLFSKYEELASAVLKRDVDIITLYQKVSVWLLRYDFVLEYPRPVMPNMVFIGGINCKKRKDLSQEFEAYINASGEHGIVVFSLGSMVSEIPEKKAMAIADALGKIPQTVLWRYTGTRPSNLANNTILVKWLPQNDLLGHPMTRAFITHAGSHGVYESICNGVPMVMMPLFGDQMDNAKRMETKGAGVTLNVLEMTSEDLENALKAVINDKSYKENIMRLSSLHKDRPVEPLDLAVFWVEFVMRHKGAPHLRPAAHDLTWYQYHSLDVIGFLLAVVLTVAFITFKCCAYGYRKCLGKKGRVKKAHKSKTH

UGT1A6 [2] = biological target: T1, UGT1A6; experiment: Serotonin glucuronidation by pooled human liver microsomes
UGT1A1 = UGT1A1 expressed in COS-1 cells; ref Basu et al. 2003; Basu et al. 2005; cited from earlier work
UGT1A7 = UGT1A7 expressed in COS-1 cells; ref Basu et al. 2003; Basu et al. 2005; cited from earlier work
UGT1A6 [3] = biological target: T1, UGT1A6; experiment: Acetaminophen glucuronidation, treated intact UGT1A6-infected Sf9 cells
UGT1A10 [4] = conditions: UGT1A10 expressed in COS-1 cells; ref Basu et al. 2003; Basu et al. 2005; cited from earlier work
UGT1A10 [5] = conditions: UGT1A10-transfected COS-1 cells; ref Basu et al. 2008; cited from earlier work
LS180 cells [6] = experiment: Acetaminophen glucuronidation in intact LS180 cells; conditions: for IC50: Homo sapiens, LS180, 24 h, read-out: IC50, acetaminophen glucuronidation; for fold difference in IC50, HLM versus intact LS180 cells: acetaminophen glucuronidation, more potent in LS180 cells; for effect on acetaminophen glucuronidation: LS180 cells; for inhibition of acetaminophen glucuronidation: initial screen, at the highest concentration tested, intact LS180 cells
LS180 cells [7] = conditions: ref Basu et al. 2003; Gutmann et al. 2006; cited from earlier work
UGT1A6 [8] = biological target: T1, UGT1A6; experiment: Serotonin glucuronidation, treated intact UGT1A6-infected Sf9 cells
PKC α = conditions: reported value, no reference given; cited from earlier work
PKC β1 = conditions: reported value, no reference given; cited from earlier work
LS180 cells [9] = conditions: 250 nM, substrate not clear, ref Basu et al. 2008; cited from earlier work
HCT8 = conditions: HCT8, 24 hr, concentrations up to 10μM; ref Tillman et al. 2003; cited from earlier work
human liver microsomes = experiment: Acetaminophen glucuronidation by pooled human liver microsomes; assay type: biochemical; conditions: read-out: IC50, acetaminophen glucuronidation; HLM, 10 mM acetaminophen
[10] = tested on: SW480 colon adenocarcinoma cells; conditions: 50 μM, 12 hr treatment, ref Masur et al. 2001; cited from earlier work
HCT116 = conditions: HCT116, 24 hr, concentrations up to 10μM; ref Tillman et al. 2003; cited from earlier work
HT29 = conditions: HT29, 24 hr, concentrations up to 10μM; ref Tillman et al. 2003; cited from earlier work
PKC = conditions: 600 μM, human astrocytoma cells; ref Kurita et al. 2007; cited from earlier work
LS180 cell lysates = conditions: read-out: IC50, acetaminophen glucuronidation; (untreated) LS180 cell lysates
[11] = concentrations more than 20 times reported selective PKC IC50 values

Compound	IC50 (UGT1A6 [1]) [µM]	IC50 (UGT1A6 [2]) [µM]	IC50 (UGT1A6 [3]) [µM]	IC50 (LS180 cells [6]) [µM]	fold difference in IC50, HLM versus intact LS180 cells (LS180 cells [6])	IC50 (UGT1A6 [8]) [µM]	effect on acetaminophen glucuronidation (LS180 cells [6]; [11])	inhibition of acetaminophen glucuronidation (LS180 cells [6]) [%]	other results
COc1c(C[C@@H](C)OC(=O)Oc2ccc(O)cc2)c2c3c(C[C@@H](C)OC(=O)c4ccccc4)c(OC)c(=O)c4c(O)cc(OC)c(c5c(OC)cc(O)c(c1=O)c52)c43 [calphostin-C]	> 2	> 2	0.83 ± 0.1	0.14 ± 0.03	over 3.5 fold	0.5 ± 0.1	–	–	effect on glucuronidation of anthraflavic acid (UGT1A1): inhibits; effect on glucuronidation of bilirubin (UGT1A1): inhibits; effect on glucuronidation of capsaicin (UGT1A7): inhibits; fold higher IC50 in insect cells versus LS180 cells (UGT1A6 [3]; acetaminophen glucuronidation): about 4 fold; effect on glucuronidation of eugenol (UGT1A10 [4]): inhibits; effect on phosphorylation of UGT1A10 (UGT1A10 [5]): dose-dependent decrease; concentration up to which not toxic in LS180 cells (LS180 cells [7]): up to 1 μM
O=C1NC(=O)C(c2cn(CCCn3ccnc3)c3ccccc23)=C1Nc1ccccc1 [PKC-β inhibitor]	–	–	–	–	–	–	did not show significant inhibitory activity	≤ 50	–
O=C1NC(=O)c2cc(Nc3ccc(F)cc3)c(Nc3ccc(F)cc3)cc21 [CGP-53353]	–	–	–	–	–	–	did not show significant inhibitory activity	≤ 50	–
CN(C)C[C@H]1CCn2c(c(C3=C(c4cn(C)c5ccccc45)C(=O)NC3=O)c3ccccc32)C1 [Ro 32–0432]	–	–	–	–	–	–	did not show significant inhibitory activity	≤ 50	IC50 (PKC α): […]; IC50 (PKC β1): […]; inhibition of glucuronidation activity (LS180 cells [9]): 30%
CC(=O)c1c(O)c(C)c(O)c(Cc2c(O)c3c(c(C(=O)/C=C/c4ccccc4)c2O)OC(C)(C)C=C3)c1O [rottlerin]	> 40	> 40	> 40	9 ± 1.2	over 3.5 fold	> 40	–	–	induction of apoptosis (HCT8): did not induce apoptosis; IC50 (human liver microsomes): > 40 µM; effect on viability of cells [10]: no effect; induction of apoptosis (HCT116): did not induce apoptosis; induction of apoptosis (HT29): did not induce apoptosis
CCCC(CCC)C(=O)O [Valproic acid, valproic acid]	–	–	–	–	–	–	–	≤ 50	inhibition of PKC (PKC): 40%; effect on acetaminophen glucuronidation (LS180 cells [6]; 80 μM and 350 μM): not inhibitory
Cc1cc(O)c2c(=O)c3c(O)cc(O)c4c5c(O)cc(O)c6c(=O)c7c(O)cc(C)c8c1c2c(c34)c(c78)c65 [hypericin]	> 30	–	0.55 ± 0.04	7.1 ± 0.6	over 3.5 fold	0.59 ± 0.05	–	–	IC50 (human liver microsomes): > 30 µM; fold lower IC50 in Sf9 cells compared with LS180 cells (UGT1A6 [3]; acetaminophen glucuronidation): 10 fold; concentration up to which not toxic in LS180 cells (LS180 cells [7]): up to 10 μM
COc1cc(/C=C/C(=O)CC(=O)/C=C/c2ccc(O)c(OC)c2)ccc1O [curcumin, Curcumin]	31.6 ± 2.4	73.9 ± 1	58.9 ± 4.5	12.1 ± 0.4	–	64.9 ± 7.5	–	–	IC50 (LS180 cell lysates): 60.9 ± 12.2 µM
CN(C)C[C@@H]1CCn2cc(c3ccccc32)C2=C(C(=O)NC2=O)c2cn(c3ccccc23)CCO1 [LY-333531, (S)-13-[(dimethylamino)methyl]-10,11,14,15-tetrahydro-4,9:16, 21-dimetheno-1H, 13H-dibenzo[e,k]pyrrolo[3,4-h][1,4,13]oxadiazacyclohexadecene-1,3(2H)-d ione]	–	–	–	–	–	–	did not show significant inhibitory activity	≤ 50	–

Reference: paper PMC6170201 (Xenobiotica; the fate of foreign compounds in biological …, 2010)
